The values that follow come from patent US11325917B2, “Thienopyrazine carboxamides as ubiquitin-specific protease inhibitors” (Valo Health, Inc., priority 2016, dated 2022).

One assay addresses USP28 (Homo sapiens (Human), UniProt Q96RU2). In words: Ubiquitin-Rhodamine 110 Assay for USP28 Activity. Type of assay: biochemical. Particulars: Ub-Rh110 substrate 25 nM. How it is done:
Each assay was performed in a final volume of 20 μL in assay buffer containing 20 mM Tris-HCl (pH 8.0, (1M Tris-HCl, pH 8.0 solution; Corning 46-031-CM)), 2 mM CaCl2 (1M Calcium Chloride solution; Sigma #21114) 2 mM BME (2-Mercaptoethanol; Sigma 63689-25ML-F), 0.01% Prionex ([…] filtered, Sigma #G-0411), and 0.01% Triton X-100. Stock compound solutions were stored at −20° C. as 10 mM in DMSO. Up to 1 month prior to the assay, 2 mM test compounds were pre-dispensed into assay plates (Black, low volume; Corning #3820) and frozen at −20° C. Prestamped assay plates were allowed to come to room temperature on the day of the assay. […] Plates were incubated stacked for 90 minutes at room temperature before fluorescence was read on the Envision (Excitation at 485 nm and Emission at 535 nm; Perkin Elmer) or on the PheraSTAR (Excitation at 485 nm and Emission at 535 nm; BMG Labtech).
For follow-up studies, Each assay was performed in a final volume of 15 μL in assay buffer containing 20 mM Tris-HCl (pH 8.0, (1M Tris-HCl, pH 8.0 solution; Corning 46-031-CM)), 3 mM BME (2-Mercaptoethanol; Sigma 63689-25ML-F), 0.03% BGG ([…] filtered, Sigma, G7516-25G), and 0.01% Triton X-100 (Sigma, T9284-10L). […] Fluorescence was read on the Envision (Excitation at 485 nm and Emission at 535 nm; Perkin Elmer) or on the PheraSTAR (Excitation at 485 nm and Emission at 535 nm; BMG Labtech). […]

The target of another assay is USP25 (Homo sapiens (Human), UniProt Q9UHP3). The assay is described as follows: Ubiquitin-Rhodamine 110 Assay for USP25 Activity. Type of assay: biochemical. The settings on record: Ub-Rh110 substrate 25 nM. How it is done: The assay was performed in a final volume of 9 μL in assay buffer containing 20 mM Tris-HCl (pH 8.0, (1M Tris-HCl, pH 8.0 solution; Corning 46-031-CM)), 3 mM BME (2-Mercaptoethanol; Sigma 63689-25ML-F), 0.03% BGG (0.22 μM filtered, Sigma, G7516-25G), and 0.01% Triton X-100 (Sigma, T9284-10L). Nanoliter quantities of 10-point, 3-fold serial dilution in DMSO was pre-dispensed into 1536 assay plates (Corning, #3724BC) for a final test concentration of 25 μM to 1.3 nM, top to lowest dose, respectively. Enzyme USP25, construct USP25-His6, (Boston Biochem E-546). […] Fluorescence was read on the Envision (Excitation at 485 nm and Emission at 535 nm; Perkin Elmer) or on the PheraSTAR (Excitation at 485 nm and Emission at 535 nm; BMG Labtech).
For both the USP28 and USP25 assay formats Data were reported as percent inhibition compared with control wells based on the following equation: % inh=1−((FLU−AveLow)/(AveHigh−AveLow)) where FLU=measured Fluorescence, AveLow=average Fluorescence of no enzyme control (n=16), and AveHigh=average Fluorescence of DMSO control (n=16). IC50 values were determined by curve fitting of the standard 4 parameter logistic fitting algorithm included in the Activity Base software package: IDBS XE Designer Model205. […]

USP25, sequence (Q9UHP3 whole entry): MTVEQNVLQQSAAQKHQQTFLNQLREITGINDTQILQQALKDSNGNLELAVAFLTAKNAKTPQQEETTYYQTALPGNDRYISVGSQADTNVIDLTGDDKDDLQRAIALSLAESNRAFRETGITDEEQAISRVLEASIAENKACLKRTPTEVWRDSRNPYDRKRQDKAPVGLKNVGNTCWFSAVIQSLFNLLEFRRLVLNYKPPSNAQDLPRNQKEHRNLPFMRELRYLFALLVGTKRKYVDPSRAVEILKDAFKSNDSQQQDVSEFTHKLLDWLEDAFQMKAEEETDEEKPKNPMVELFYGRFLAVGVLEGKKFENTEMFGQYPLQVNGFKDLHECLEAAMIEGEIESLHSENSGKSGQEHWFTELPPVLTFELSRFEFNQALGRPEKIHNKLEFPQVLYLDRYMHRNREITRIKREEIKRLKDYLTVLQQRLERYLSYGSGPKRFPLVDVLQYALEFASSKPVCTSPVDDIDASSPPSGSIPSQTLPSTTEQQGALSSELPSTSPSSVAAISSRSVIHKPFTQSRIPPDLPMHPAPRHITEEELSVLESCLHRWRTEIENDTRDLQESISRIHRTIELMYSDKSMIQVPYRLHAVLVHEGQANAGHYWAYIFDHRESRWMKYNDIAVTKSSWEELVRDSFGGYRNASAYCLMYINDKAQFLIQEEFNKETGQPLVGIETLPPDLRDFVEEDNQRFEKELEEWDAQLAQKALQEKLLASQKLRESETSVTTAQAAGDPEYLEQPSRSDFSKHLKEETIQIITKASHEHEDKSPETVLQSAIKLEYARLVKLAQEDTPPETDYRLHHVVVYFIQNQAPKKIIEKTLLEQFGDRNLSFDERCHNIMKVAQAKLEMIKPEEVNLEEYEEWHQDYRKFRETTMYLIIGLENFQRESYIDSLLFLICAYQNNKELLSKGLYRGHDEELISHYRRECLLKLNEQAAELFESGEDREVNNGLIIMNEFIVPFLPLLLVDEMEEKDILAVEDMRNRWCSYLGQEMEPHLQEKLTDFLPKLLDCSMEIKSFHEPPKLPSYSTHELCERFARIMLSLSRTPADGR
USP28, sequence (Q96RU2 whole entry): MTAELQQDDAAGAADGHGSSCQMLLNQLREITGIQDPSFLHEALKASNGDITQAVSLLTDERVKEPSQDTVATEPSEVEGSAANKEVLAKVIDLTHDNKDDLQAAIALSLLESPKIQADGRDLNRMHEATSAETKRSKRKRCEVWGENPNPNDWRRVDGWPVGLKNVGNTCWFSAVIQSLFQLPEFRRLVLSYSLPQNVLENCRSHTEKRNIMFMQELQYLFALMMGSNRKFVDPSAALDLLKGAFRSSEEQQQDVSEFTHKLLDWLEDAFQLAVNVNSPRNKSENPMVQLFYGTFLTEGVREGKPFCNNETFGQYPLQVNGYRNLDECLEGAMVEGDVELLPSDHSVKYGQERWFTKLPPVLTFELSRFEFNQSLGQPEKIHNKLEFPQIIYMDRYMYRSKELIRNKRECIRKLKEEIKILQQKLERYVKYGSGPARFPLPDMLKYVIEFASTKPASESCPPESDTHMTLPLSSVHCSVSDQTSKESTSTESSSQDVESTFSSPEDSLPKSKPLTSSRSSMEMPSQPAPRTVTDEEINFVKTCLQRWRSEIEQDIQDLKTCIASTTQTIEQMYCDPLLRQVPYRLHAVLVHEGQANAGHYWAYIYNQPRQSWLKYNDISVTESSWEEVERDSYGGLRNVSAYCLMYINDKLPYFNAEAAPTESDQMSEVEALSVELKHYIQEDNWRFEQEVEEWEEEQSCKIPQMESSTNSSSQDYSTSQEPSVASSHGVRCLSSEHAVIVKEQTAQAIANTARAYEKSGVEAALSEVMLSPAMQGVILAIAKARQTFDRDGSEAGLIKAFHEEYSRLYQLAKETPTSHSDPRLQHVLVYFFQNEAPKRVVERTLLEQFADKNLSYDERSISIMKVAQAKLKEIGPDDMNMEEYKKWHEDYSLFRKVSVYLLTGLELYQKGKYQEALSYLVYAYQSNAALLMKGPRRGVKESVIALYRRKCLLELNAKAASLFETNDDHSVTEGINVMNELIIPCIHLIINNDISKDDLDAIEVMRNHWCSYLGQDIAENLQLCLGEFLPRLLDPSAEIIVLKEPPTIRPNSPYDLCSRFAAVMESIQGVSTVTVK

As usually defined, the IC50 is the midpoint of a concentration-inhibition curve. A lower IC50 goes with greater potency. With `Cc1cnc2c(N)c(C(=O)NCCc3cc(F)c(N4CC5CNCC(C4)O5)cc3F)sc2n1` [Compound I-20], the IC50 against USP28 and against USP25 was less than 200 nM each time.
